Data published in paper PMC5845353, “The selective cathepsin K inhibitor MIV-711 attenuates joint pathology in experimental animal models of osteoarthritis” (Journal of Translational Medicine, 2018).

Test system: rabbits subjected to anterior cruciate ligament transection (ACLT)
Experiment: Rabbit ACLT study, histomorphometry of bone, cartilage and osteophytes
Type: in vivo
Protocol: The femora and tibias were decalcified, embedded in paraffin, sectioned at 5-7 µm at two different levels separated by approximately 2 mm, and stained with safranin O and toluidine blue.
Both tibial plateaus and femoral condyles (i.e. four joint compartments) were also subjected to histomorphometric analysis of cartilage, subchondral bone, cancellous bone, and osteophytes. The measurements were made using OsteoMeasureXP version 3.3.0.2 as follows:
Uncalcified cartilage area was measured by tracing the articular surface (cartilage perimeter) and bone or calcified cartilage/uncalcified cartilage interface (cartilage boundary).
Cartilage width was measured by point to point measurement at intersections between a sampling grid with approximately 0.5 mm spacing and the cartilage boundary. The intercepts measured were orthogonal to the cartilage boundary and ended at the cartilage perimeter. At intersections where the cartilage width was zero due to erosion, a value of zero was recorded.
Subchondral bone width was measured by point to point measurement at intersections between a sampling grid with approximately 0.5 mm spacing and the cartilage boundary. The intercepts measured were orthogonal to the cartilage boundary and ended at the first marrow cavity encountered that had at least one dimension approximately equivalent to nearby trabecular thickness.
Osteophyte area was measured for abaxial osteophytes. On the femur, osteophytes associated with the condyles but not with the trochlear grooves were measured.
Bone area (including osteoid) and perimeter were measured in a 3.8 X 1.5 mm ROI centered approximately 1 mm below the bone/cartilage interface. This ROI was intended to be equivalent to the subchondral cancellous bone VOI measured by microCT. Bone volume (BV/TV), trabecular thickness (Tb.Th), trabecular number (Tb.N) and trabecular separation (Tb.Sp) were derived from these measurements using standard formulae.
Slides were evaluated in animal ID order, i.e. in random order with respect to treatment, so that the measurer was effectively blinded to treatment assignment.
Analysis was performed on all four condyles at two levels (Level 1 and 2) for each condyle:
Group 1) sham + vehicle; Group 2) ACLT + vehicle; Group 3) ACLT + MIV-711, 30 µmol/kg (low dose) and Group 4) ACLT + MIV-711, 100 µmol/kg (high dose).

[1] = Level 2, MFC, Group 3: ACLT + MIV-711, 30 µmol/kg (low dose)
[2] = Level 2, MFC, Group 4: ACLT + MIV-711, 100 µmol/kg (high dose)
[3] = Level 2, MTP, Group 3: ACLT + MIV-711, 30 µmol/kg (low dose)
[4] = Level 2, MTP, Group 4: ACLT + MIV-711, 100 µmol/kg (high dose)

## C#C[C@@H]1CN(C(=O)[C@H](CC(C)C)NC(=O)c2ccc(-c3nc(N4CCN(C)CC4)sc3F)cc2)[C@@H]2C(=O)CO[C@H]12 [MIV-711]
Level 1 MFC, Group 4, ACLT + MIV-711 100 µmol/kg
  Tb.Th, Median: 161.50 µm
Level 2, LFC, Group 3
  BV/TV, Mean: 36.23%
  BV/TV, Median: 35.15%
  Cart.Ar, Mean: 1.54 mm2
  Cart.Ar, Median: 1.50 mm2
  Cart.Bd, Mean: 5.95 mm
  Cart.Bd, Median: 5.45 mm
  Cart.Pm, Mean: 6.68 mm
  Cart.Pm, Median: 6.07 mm
  Cart.Wi, Mean: 252.24 µm
  Cart.Wi, Median: 265.00 µm
  Ophte.Ar, Mean: 1.80 mm2
  Ophte.Ar, Median: 1.91 mm2
  SCB.Wi, Mean: 625.26 µm
  SCB.Wi, Median: 686.73 µm
  Tb.N, Mean: 2.86 1/mm
  Tb.N, Median: 3.01 1/mm
  Tb.Sp, Mean: 227.32 µm
  Tb.Sp, Median: 224.93 µm
  Tb.Th, Mean: 129.54 µm
  Tb.Th, Median: 124.26 µm
Level 2, LFC, Group 4
  BV/TV, Mean: 36.75%
  BV/TV, Median: 38.04%
  Cart.Ar, Mean: 1.69 mm2
  Cart.Ar, Median: 1.76 mm2
  Cart.Bd, Mean: 7.36 mm
  Cart.Bd, Median: 7.45 mm
  Cart.Pm, Mean: 8.13 mm
  Cart.Pm, Median: 8.16 mm
  Cart.Wi, Mean: 223.79 µm
  Cart.Wi, Median: 238.09 µm
  Ophte.Ar, Mean: 4.60 mm2
  Ophte.Ar, Median: 1.57 mm2
  SCB.Wi, Mean: 500.70 µm
  SCB.Wi, Median: 462.81 µm
  Tb.N, Mean: 3.05 1/mm
  Tb.N, Median: 2.97 1/mm
  Tb.Sp, Mean: 212.50 µm
  Tb.Sp, Median: 210.44 µm
  Tb.Th, Mean: 120.73 µm
  Tb.Th, Median: 120.14 µm
Level 2, LTP, Group 3
  BV/TV, Mean: 42.02%
  BV/TV, Median: 40.17%
  Cart.Ar, Mean: 0.88 mm2
  Cart.Ar, Median: 0.95 mm2
  Cart.Bd, Mean: 4.27 mm
  Cart.Bd, Median: 4.41 mm
  Cart.Pm, Mean: 4.26 mm
  Cart.Pm, Median: 4.48 mm
  Cart.Wi, Mean: 207.98 µm
  Cart.Wi, Median: 203.75 µm
  Ophte.Ar, Mean: 1.40 mm2
  Ophte.Ar, Median: 1.23 mm2
  SCB.Wi, Mean: 531.17 µm
  SCB.Wi, Median: 547.82 µm
  Tb.N, Mean: 2.93 1/mm
  Tb.N, Median: 3.04 1/mm
  Tb.Sp, Mean: 202.17 µm
  Tb.Sp, Median: 206.70 µm
  Tb.Th, Mean: 146.36 µm
  Tb.Th, Median: 148.82 µm
Level 2, LTP, Group 4
  BV/TV, Mean: 39.84%
  BV/TV, Median: 38.48%
  Cart.Ar, Mean: 1.20 mm2
  Cart.Ar, Median: 1.00 mm2
  Cart.Bd, Mean: 4.73 mm
  Cart.Bd, Median: 4.37 mm
  Cart.Pm, Mean: 5.10 mm
  Cart.Pm, Median: 4.58 mm
  Cart.Wi, Mean: 263.50 µm
  Cart.Wi, Median: 255.71 µm
  Ophte.Ar, Mean: 1.37 mm2
  Ophte.Ar, Median: 1.37 mm2
  SCB.Wi, Mean: 559.05 µm
  SCB.Wi, Median: 594.94 µm
  Tb.N, Mean: 2.47 1/mm
  Tb.N, Median: 2.50 1/mm
  Tb.Sp, Mean: 250.77 µm
  Tb.Sp, Median: 246.02 µm
  Tb.Th, Mean: 161.80 µm
  Tb.Th, Median: 153.89 µm
Level 2, MFC, Group 3
  BV/TV, Mean: 50.84%
  BV/TV, Median: 46.53%
[1]
  Cart.Ar, Mean: 1.47 mm2
  Cart.Ar, Median: 1.46 mm2
  Cart.Bd, Mean: 6.28 mm
  Cart.Bd, Median: 6.09 mm
  Cart.Pm, Mean: 6.91 mm
  Cart.Pm, Median: 6.73 mm
  Cart.Wi, Mean: 223.23 µm
  Cart.Wi, Median: 234.59 µm
  Ophte.Ar, Mean: 2.89 mm2
  Ophte.Ar, Median: 3.00 mm2
  SCB.Wi, Mean: 694.43 µm
  SCB.Wi, Median: 608.27 µm
  Tb.N, Mean: 2.80 1/mm
  Tb.N, Median: 2.86 1/mm
  Tb.Sp, Mean: 174.68 µm
  Tb.Sp, Median: 185.17 µm
  Tb.Th, Mean: 189.67 µm
  Tb.Th, Median: 161.11 µm
Level 2, MFC, Group 4
  BV/TV, Mean: 43.61%
  BV/TV, Median: 41.52%
[2]
  Cart.Ar, Mean: 1.41 mm2
  Cart.Ar, Median: 1.41 mm2
  Cart.Bd, Mean: 6.12 mm
  Cart.Bd, Median: 6.18 mm
  Cart.Pm, Mean: 6.67 mm
  Cart.Pm, Median: 6.55 mm
  Cart.Wi, Mean: 222.96 µm
  Cart.Wi, Median: 218.64 µm
  Ophte.Ar, Mean: 2.78 mm2
  Ophte.Ar, Median: 2.43 mm2
  SCB.Wi, Mean: 570.45 µm
  SCB.Wi, Median: 510.39 µm
  Tb.N, Mean: 3.01 1/mm
  Tb.N, Median: 3.07 1/mm
  Tb.Sp, Mean: 189.22 µm
  Tb.Sp, Median: 197.91 µm
  Tb.Th, Mean: 144.65 µm
  Tb.Th, Median: 140.49 µm
[3]
  BV/TV, Mean: 39.18%
  BV/TV, Median: 39.13%
  Cart.Ar, Mean: 0.74 mm2
  Cart.Ar, Median: 0.67 mm2
  Cart.Bd, Mean: 2.32 mm
  Cart.Bd, Median: 2.31 mm
  Cart.Pm, Mean: 2.43 mm
  Cart.Pm, Median: 2.27 mm
  Cart.Wi, Mean: 312.01 µm
  Cart.Wi, Median: 270.73 µm
  Ophte.Ar, Mean: 5.73 mm2
  Ophte.Ar, Median: 3.43 mm2
  SCB.Wi, Mean: 747.49 µm
  SCB.Wi, Median: 739.43 µm
  Tb.N, Mean: 2.37 1/mm
  Tb.N, Median: 2.27 1/mm
  Tb.Sp, Mean: 257.90 µm
  Tb.Sp, Median: 251.22 µm
  Tb.Th, Mean: 166.79 µm
  Tb.Th, Median: 176.63 µm
[4]
  BV/TV, Mean: 33.87%
  BV/TV, Median: 33.99%
  Cart.Ar, Mean: 1.78 mm2
  Cart.Ar, Median: 0.71 mm2
  Cart.Bd, Mean: 2.50 mm
  Cart.Bd, Median: 2.18 mm
  Cart.Pm, Mean: 2.70 mm
  Cart.Pm, Median: 2.14 mm
  Cart.Wi, Mean: 282.89 µm
  Cart.Wi, Median: 257.34 µm
  Ophte.Ar, Mean: 10.32 mm2
  Ophte.Ar, Median: 6.59 mm2
  SCB.Wi, Mean: 575.52 µm
  SCB.Wi, Median: 691.04 µm
  Tb.N, Mean: 2.15 1/mm
  Tb.N, Median: 1.97 1/mm
  Tb.Sp, Mean: 317.92 µm
  Tb.Sp, Median: 313.76 µm
  Tb.Th, Mean: 160.02 µm
  Tb.Th, Median: 151.52 µm
